Source: the supplement of paper PMC4862054

Columns and labels:
Assay in all cases: normalised viability (% of control), CellTiter-Blue; higher = more viable cells (about 100 = DMSO control)
Conditions in all cases: incubation time: 72 h
[1] = system: CAL-51
Description: (§1)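 DSRT, CellTiter-Blue viability, 72 h incubation. Signal is normalised to DMSO and benzethonium chloride controls. Value is the normalised response at dose 6.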

[2] = system: CAL-148
Description: as §1

[3] = system: CAL-85-1
Description: as §1

[4] = system: MDA-MB-453
Description: as §1

[5] = system: DU-4475
Description: as §1

[6] = system: HDQ-P1
Description: as §1

[7] = system: MDA-MB-436
How it was run: (§2)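 Each value is normalised viability at a single listed concentration of the series. Breast cancer cell lines in 384-well plates were incubated 72 h with compound and read by CellTiter-Blue fluorescence at 560/590 nm, with vehicle set to 100 and a positive kill control to 0 on every plate.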

[8] = system: CAL-51; remark: listed apart in the source
How it was run: as §2

[9] = system: MFM-223
How it was run: as §2

[10] = system: CAL-85-1; remark: listed apart in the source
How it was run: as §2

[11] = system: Hs578T
How it was run: as §2

[12] = system: BT-474
How it was run: as §2

[13] = system: DU-4475; remark: listed apart in the source
How it was run: as §2

[14] = system: BT-549
How it was run: as §2

[15] = system: SK-BR-3
How it was run: as §2

[16] = system: HDQ-P1; remark: listed apart in the source
How it was run: as §2

[17] = system: CAL-51; remark: listed apart in the source
Description: (§3)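 DSRT, CellTiter-Blue viability, 72 h incubation. Signal is normalised to DMSO and benzethonium chloride controls. Value is the normalised response at dose 8.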

[18] = system: CAL-148; remark: listed apart in the source
Description: as §3

[19] = system: CAL-85-1; remark: listed apart in the source
Description: as §3

[20] = system: MDA-MB-453; remark: listed apart in the source
Description: as §3

[21] = system: DU-4475; remark: listed apart in the source
Description: as §3

[22] = system: HDQ-P1; remark: listed apart in the source
Description: as §3

[23] = system: CAL-51; remark: listed apart in the source
Description: (§4)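 DSRT, CellTiter-Blue viability, 72 h incubation. Signal is normalised to DMSO and benzethonium chloride controls. Value is the normalised response at dose 9.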

[24] = system: CAL-148; remark: listed apart in the source
Description: as §4

[25] = system: CAL-85-1; remark: listed apart in the source
Description: as §4

[26] = system: MDA-MB-453; remark: listed apart in the source
Description: as §4

[27] = system: DU-4475; remark: listed apart in the source
Description: as §4

[28] = system: HDQ-P1; remark: listed apart in the source
Description: as §4

## Cc1cnc(NC(=O)Nc2cc(Br)c(C)cc2OC[C@@H]2CNCCO2)cn1
[1]; 30 nM
  normalised viability: 95.7%
[2]; 30 nM
  normalised viability: 91.7%
[3]; 30 nM
  normalised viability: 92%
[4]; 30 nM
  normalised viability: 94.3%
[5]; 30 nM
  normalised viability: 106%
[6]; 30 nM
  normalised viability: 68.4%
[7]; 10 nM
  normalised viability: 112%
[8]; 1 nM
  normalised viability: 95%
[9]; 10 nM
  normalised viability: 89.6%
[10]; 1 nM
  normalised viability: 91.4%
[11]; 10 nM
  normalised viability: 101%
[12]; 10 nM
  normalised viability: 101%
[13]; 1 nM
  normalised viability: 90.8%
[14]; 10 nM
  normalised viability: 87.3%
[15]; 10 nM
  normalised viability: 88.3%
[16]; 1 nM
  normalised viability: 90.1%
[17]; 300 nM
  normalised viability: 103%
[18]; 300 nM
  normalised viability: 107%
[19]; 300 nM
  normalised viability: 88.1%
[20]; 300 nM
  normalised viability: 93.3%
[21]; 300 nM
  normalised viability: 102%
[22]; 300 nM
  normalised viability: 96.2%
[23]; 1000 nM
  normalised viability: 89.3%
[24]; 1000 nM
  normalised viability: 56.7%
[25]; 1000 nM
  normalised viability: 68.3%
[26]; 1000 nM
  normalised viability: 65.2%
[27]; 1000 nM
  normalised viability: 72%
[28]; 1000 nM
  normalised viability: 106%

## NCCCNCCSP(=O)(O)O [Amifostine]
[1]; 300 nM
  normalised viability: 103%
[2]; 300 nM
  normalised viability: 95.2%
[3]; 300 nM
  normalised viability: 93.8%
[4]; 300 nM
  normalised viability: 105%
[5]; 300 nM
  normalised viability: 87.7%
[6]; 300 nM
  normalised viability: 63.9%
[7]; 100 nM
  normalised viability: 107%
[8]; 10 nM
  normalised viability: 105%
[9]; 100 nM
  normalised viability: 77.7%
[10]; 10 nM
  normalised viability: 90.7%
[11]; 100 nM
  normalised viability: 79.1%
[12]; 100 nM
  normalised viability: 95.8%
[13]; 10 nM
  normalised viability: 97.3%
[14]; 100 nM
  normalised viability: 103%
[15]; 100 nM
  normalised viability: 108%
[16]; 10 nM
  normalised viability: 105%
[17]; 3000 nM
  normalised viability: 107%
[18]; 3000 nM
  normalised viability: 95.1%
[19]; 3000 nM
  normalised viability: 91.6%
[20]; 3000 nM
  normalised viability: 96.6%
[21]; 3000 nM
  normalised viability: 110%
[22]; 3000 nM
  normalised viability: 94.8%
[23]; 10000 nM
  normalised viability: 108%
[24]; 10000 nM
  normalised viability: 95.2%
[25]; 10000 nM
  normalised viability: 89.9%
[26]; 10000 nM
  normalised viability: 86.4%
[27]; 10000 nM
  normalised viability: 90.6%
[28]; 10000 nM
  normalised viability: 100%

## CC[C@H](Nc1ncnc2[nH]cnc12)c1nc2cccc(F)c2c(=O)n1-c1ccccc1 [CAL-101]
[1]; 300 nM
  normalised viability: 85.3%
[2]; 300 nM
  normalised viability: 90.4%
[3]; 300 nM
  normalised viability: 81.9%
[4]; 300 nM
  normalised viability: 86%
[5]; 300 nM
  normalised viability: 91.1%
[6]; 300 nM
  normalised viability: 58%
[7]; 100 nM
  normalised viability: 104%
[8]; 10 nM
  normalised viability: 84.7%
[9]; 100 nM
  normalised viability: 88.3%
[10]; 10 nM
  normalised viability: 87.5%
[11]; 100 nM
  normalised viability: 89.6%
[12]; 100 nM
  normalised viability: 112%
[13]; 10 nM
  normalised viability: 98.6%
[14]; 100 nM
  normalised viability: 102%
[15]; 100 nM
  normalised viability: 76.3%
[16]; 10 nM
  normalised viability: 112%
[17]; 3000 nM
  normalised viability: 89.3%
[18]; 3000 nM
  normalised viability: 83.3%
[19]; 3000 nM
  normalised viability: 76.8%
[20]; 3000 nM
  normalised viability: 79.5%
[21]; 3000 nM
  normalised viability: 104%
[22]; 3000 nM
  normalised viability: 80.7%
[23]; 10000 nM
  normalised viability: 57.3%
[24]; 10000 nM
  normalised viability: 88.1%
[25]; 10000 nM
  normalised viability: 47.5%
[26]; 10000 nM
  normalised viability: 67.4%
[27]; 10000 nM
  normalised viability: -0.99%
[28]; 10000 nM
  normalised viability: 61.3%
